# Reference: PubChem BioAssay (NCI)
#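 Growth conditions: 96-well plates. Treatment: test compound, 48 hours, 5 concentrations. Analysis: linear interpolation between bracketing concentrations; unreached endpoints set to highest concentration. GI50: concentration for 50% inhibition of growth. The concentration for full growth arrest is given as TGI.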
# What was measured:
# Assay in all cases: inhibition of tumour cell growth, NCI panel, 48 h
# [1] = tested on: 786-0 renal
# [2] = tested on: A498 renal
# [3] = tested on: BT-549 breast
# [4] = tested on: CCRF-CEM leukemia
# [5] = tested on: COLO 205 colon
# [6] = tested on: HOP-62 NSCLC
# [7] = tested on: MOLT-4 leukemia
# [8] = tested on: PC-3 prostate
# [9] = tested on: RPMI-8226 leukemia
# [10] = tested on: SF-295 CNS
Compound,GI50 [1],TGI [1],GI50 [2],TGI [2],GI50 [3],TGI [3],GI50 [4],TGI [4],GI50 [5],TGI [5],GI50 [6],TGI [6],GI50 [7],TGI [7],GI50 [8],TGI [8],GI50 [9],TGI [9],GI50 [10],TGI [10]
COc1cc(/C=C/C(=O)c2cc(OC)c(OC)c(OC)c2)cc(OC)c1OC,3.07 µM,11.3 µM,2.47 µM,9.47 µM,2.48 µM,9.26 µM,2.25 µM,> 100 µM,9.09 µM,25.8 µM,4.07 µM,18.2 µM,2.8 µM,48.6 µM,5.32 µM,27.8 µM,2.56 µM,19.4 µM,2.18 µM,7.85 µM
C[C@@]12CCC[C@@](C)(C(=O)O)C1CC[C@@]13CC(=O)[C@@](CO)(CCC12)C3 (stereo not given in full),> 100 µM,> 100 µM,> 100 µM,> 100 µM,> 100 µM,> 100 µM,> 100 µM,> 100 µM,> 100 µM,> 100 µM,> 100 µM,> 100 µM,> 100 µM,> 100 µM,> 100 µM,> 100 µM,> 100 µM,> 100 µM,> 100 µM,> 100 µM
CN1CCN(c2cc(Nc3cc(C4CC4)[nH]n3)nc(Nc3ccc(CC(=O)NCc4cccc(F)c4)cc3)n2)CC1,0.934 µM,4.04 µM,0.143 µM,0.967 µM,2.96 µM,19.9 µM,0.0495 µM,7.49 µM,0.0713 µM,0.607 µM,0.754 µM,14.4 µM,0.248 µM,19.8 µM,0.616 µM,22.8 µM,2 µM,6.52 µM,1.99 µM,10.3 µM
CC(C)CC(=O)CC(O)C(Cl)(Cl)Cl (stereo not given),,> 100 µM,,> 100 µM,,> 100 µM,,> 100 µM,,> 100 µM,,> 100 µM,,> 100 µM,,> 100 µM,,> 100 µM,,> 100 µM
C=C1C(=O)O[C@H]2[C@H]1CC(=O)/C(C)=C\CC[C@@]1(C)O[C@@H]21,1.06 µg/mL,4.51 µg/mL,5.55 µg/mL,11.3 µg/mL,3.41 µg/mL,7 µg/mL,0.443 µg/mL,1.4 µg/mL,0.755 µg/mL,3.54 µg/mL,4.31 µg/mL,8.45 µg/mL,1.12 µg/mL,4.7 µg/mL,4.53 µg/mL,8.7 µg/mL,0.514 µg/mL,1.3 µg/mL,5.55 µg/mL,12.4 µg/mL
Nc1c(O)c(S(=O)(=O)O)c(O)c2c1C(=O)c1ccccc1C2=O,4.73 µM,41.3 µM,2.33 µM,7.53 µM,2.78 µM,8.94 µM,3.1 µM,11 µM,1.61 µM,3.01 µM,2.92 µM,> 100 µM,1.9 µM,4.91 µM,2.32 µM,7.87 µM,2.53 µM,7.77 µM,2.32 µM,7.27 µM
Cc1ccc(-n2c(-c3ccc(Cl)cc3)cs/c2=N\NC(=O)COc2n[nH]c(=O)c3ccccc23)cc1,51.4 µM,> 100 µM,> 100 µM,> 100 µM,> 100 µM,> 100 µM,> 100 µM,> 100 µM,> 100 µM,> 100 µM,51.8 µM,> 100 µM,> 100 µM,> 100 µM,> 100 µM,> 100 µM,> 100 µM,> 100 µM,19.7 µM,> 100 µM
O=[N+]([O-])c1ccc2c(c1)S(=O)c1ccccc1-2 (stereo not given),,> 100 µM,,> 100 µM,,> 100 µM,,> 100 µM,,> 100 µM,,> 100 µM,,> 100 µM,,> 100 µM,,> 100 µM,,> 100 µM
COc1cc2c3c(n(C)c(=O)c2cc1OC)-c1cc2c(cc1/C3=C\[C@@H](N)CCCCN)OCO2,2.06 µM,> 100 µM,5.14 µM,33.9 µM,4.52 µM,28.3 µM,0.996 µM,> 100 µM,2.8 µM,> 86.3 µM,3.14 µM,26.9 µM,0.389 µM,3.45 µM,2.71 µM,> 53.1 µM,2.57 µM,35.2 µM,4.3 µM,> 100 µM
Oc1ccc(-c2nc3ccc4[nH]ncc4c3c3c2CCCC3)c2cccnc12,0.435 µM,3.95 µM,0.779 µM,2.19 µM,0.421 µM,2.58 µM,0.204 µM,11.8 µM,0.89 µM,2.42 µM,0.16 µM,1.71 µM,0.393 µM,12.8 µM,0.389 µM,6.56 µM,0.158 µM,4.12 µM,0.339 µM,2.68 µM
CCCCc1nc2cc(/C=C/C(=O)NO)ccc2n1CCN(CC)CC,0.46 µM,11.5 µM,0.194 µM,0.658 µM,1.98 µM,38.2 µM,0.317 µM,> 100 µM,0.138 µM,0.298 µM,0.322 µM,11.6 µM,0.384 µM,> 88.8 µM,0.327 µM,16.2 µM,0.176 µM,> 100 µM,0.26 µM,1.23 µM
C=CCNc1cccc2c1C(=O)c1ccccc1C2(O)CC=C (stereo not given),19.8 µM,36.9 µM,21.8 µM,47.8 µM,19.3 µM,42.7 µM,22.6 µM,52 µM,16.2 µM,36.1 µM,24.2 µM,61.2 µM,41.8 µM,> 100 µM,26.6 µM,73.8 µM,17.4 µM,44.6 µM,25.7 µM,55 µM
COc1ccc2sc3c(NCCCNCCO)nc4ccccc4c3c(=O)c2c1,1.38 µM,2.82 µM,1.49 µM,2.97 µM,10.2 µM,22.7 µM,1.74 µM,4.06 µM,1.66 µM,3.65 µM,1.59 µM,3.26 µM,1.93 µM,3.81 µM,1.58 µM,3.1 µM,1.71 µM,3.86 µM,1.73 µM,3.15 µM
